This assay has as its system Bp. The arrangement: species or system BALB/c mice. The settings on record: mouse, in vivo.

Turning to “gentamicin [free (i.e., unencapsulated) gentamicin]”, the “bacterial burdens in lungs, livers, and spleens” value was 10^3-10^5 CFUs/organ; the “time to death of all mice after infection” value is not above 4 days.

The values above are taken from patent US20180049984A1 (priority 2014, published 2018).
